Assay results taken from patent US4613355A, “Antibiotic having herbicidal activity” (Satoshi Omura, priority 1983, dated 1986).
In brackets after ≈: the same amount, converted by molar mass.

What was measured:
Rumex obtusifolius = experiment: Foliage treatment with different salts (Example 11); type: in vivo; set-up: key: 0 indicates no effect; 5 indicates complete kill; conditions: Rumex obtusifolius (Plant No. 14), 1000 liter per hectare
Protocol: Aqueous solutions containing different salts of Phosalacine at different concentrations as active ingredients and 0.1% of octylphenylpolyoxy ethanol as surfactant were applied at a rate of 1000 liter per hectare to Rumex obtusifolius (Plant No. 14) at a certain stage of growth. 21 days after foliage treatment, damage to the plant was visually assessed on a scale of 0 to 5 as hereinbefore described. The salts used were prepared by the methods described in the reference mentioned above.

Killifishes (Medaka) = experiment: Acute toxicity to fish, survival ratio (Example 13); type: in vivo; conditions: for Survival ratio (%): killifish, 100 ppm
Protocol: Killifishes (Japanese name, Medaka), were obtained from a market and maintained in a water bath at 25±2° C. for a week. Then the fishes (each group consisting of 10 fishes) were placed in water baths containing the test compounds at given concentrations as shown in the following Table. 24 and 48 hours after this, the survival ratio (%) of each group was visually counted to assess the acute toxity.

various plants = experiment: Inhibition of regrowth one month after foliage treatment (Example 8); type: in vivo; conditions: visually assessed, compared with SF-1293
Protocol: Aqueous solutions of Phosalacine (Na salt) at different concentrations were applied at a rate of 1500 liters per hectare to naturally occurring plants or plants which were cultured on plates as shown in the following Table at certain stages of growth. The Phosalacine applied contained 0.1% of octylphenylpolyoxy ethanol as surfactant. 7 and 14 days after the foliage treatment, damage to the plants was visually assessed on a scale of from 0 to 5 where 0 indicates no effect and 5 indicates complete kill. […] One month after the foliage treatment, the inhibition of regrowth of the plants was visually investigated.
One month after the foliage treatment, the inhibition of regrowth of the plants was visually assessed.

[1] = system: Staphylococcus aureus KB210; experiment: MIC by agar dilution method; type: cell-based; conditions: medium A Davis's minimal medium (pH 7.0)
Proteus vulgaris KB127 = experiment: MIC by agar dilution method; type: cell-based; conditions: medium A Davis's minimal medium (pH 7.0)
Chamaecyparis obtusa = experiment: Foliage treatment of woody plants (Example 10); type: in vivo; conditions: even when applied at a concentration of 0.5%
From the text: (§1) Aqueous solutions containing Phosalacine (Na salt) at different concentrations and 0.1% of octylphenylpolyoxy ethanol as surfactant were applied at a rate of 1500 liter per hectare to woody plants of about 60-70 cm in height. 7 and 14 days after the foliage treatment, damage to the plants was visually assessed on a scale of from 0 to 5 (cf. Example 7).

Cryptomeria japonica = experiment: Foliage treatment of woody plants (Example 10); type: in vivo; conditions: in vivo
From the text: as §1

Aspergillus niger KF105 = experiment: MIC by agar dilution method; type: cell-based; conditions: medium B Dextrose Czapek' medium
Erwinia aroideae KB148 = experiment: MIC by agar dilution method; type: cell-based; conditions: medium A Davis's minimal medium (pH 7.0)
Bacillus subtilis KB211 = experiment: MIC by agar dilution method; type: cell-based
Escherichia coli KB213 = experiment: MIC by agar dilution method; type: cell-based; conditions: medium A Davis's minimal medium (pH 7.0)
From the text: The minimum inhibitory concentrations (MIC values) of Phosalacine were investigated in conventional manner by the agar dilution method and the results are indicated in the following Table, from which it is apparent that Phosalacine is active against various Gram-positive and Gram-negative bacteria and fungi.
[Notes: A . . . Davis's minimal medium (pH 7.0), B . . . Dextrose Czapek'

Piricularia oryzae KF180 = type: cell-based; conditions: medium B Dextrose Czapek' medium
[2] = Physico-chemical characteristics: acid/base nature; type: physicochemical
Mucor racemosus KF223 = experiment: MIC by agar dilution method; type: cell-based; conditions: medium B Dextrose Czapek' medium
Bacillus cereus KB143 = experiment: MIC by agar dilution method; type: cell-based; conditions: medium A Davis's minimal medium (pH 7.0)
[3] = system: Klebsiella pneumoniae KB214; experiment: MIC by agar dilution method; type: cell-based; conditions: medium A Davis's minimal medium (pH 7.0)
[4] = system: Staphylococcus aureus KB199; experiment: MIC by agar dilution method; type: cell-based; conditions: medium A Davis's minimal medium (pH 7.0)
Candida albicans KFl = experiment: MIC by agar dilution method; type: cell-based; conditions: medium B Dextrose Czapek' medium
[5] = Acute toxicity in mice per os, body weight (Example 14); type: in vivo, Mice ICR (RJ) strain; conditions: for Body weight: 500 mg/kg per os
Protocol: Mice [ICR (RJ) strain; female; 6 weeks after birth; each group consisting of 10 mice] were used as test animals to investigate the acute toxity of Phosalacine in mice. A 1% aqueous solution (free acid) was forcibly administered per os to each animal and the body weight of each animal was measured 7 and 14 days after administration. Separately, a similar test was effected by administering Phosalacine (free acid) at a dose of 100 mg/kg.

Escherichia coli KB176 = experiment: MIC by agar dilution method; type: cell-based; conditions: medium A Davis's minimal medium (pH 7.0)
Micrococcus luteus KB212 = experiment: MIC by agar dilution method; type: cell-based; conditions: medium A Davis's minimal medium (pH 7.0)
Digitaria adscendens = experiment: Foliage treatment of seedlings in pots (Example 7); type: in vivo; conditions: 10 days after foliage treatment, 1000 liter per hectare
Protocol: Upland soil was put in a pot of 10 cm diameter and the seeds of Digitaria adscendens were sown in the soil at a depth of 1 cm from the surface. When the height of the seedlings was about 10 cm, aqueous solutions of the test compounds as shown in the following Table were uniformly sprayed on the plants at a rate of 1.2 ml per plant, equivalent to 1000 liter per hectare. 10 days after the foliage treatment, damage to plants was visually assessed on a scale of from 0 to 10, where 0 indicates no effect and 10 indicates complete kill.

With `CC(C)CC(NC(=O)C(C)NC(=O)C(N)CCP(C)(=O)[O-])C(=O)[O-].[K+].[K+]` (centres unmarked) [Di Ka salt] the “Damage to plants after 21 days, scale 0 to 5” value (from here on “Damage to plants after 21 days”) (Rumex obtusifolius; 0.05%) was 3 and the “Damage to plants after 21 days” value (Rumex obtusifolius; 0.1%) was 5.

For `CC(C)CC(NC(=O)C(C)NC(=O)C(N)CCP(C)(=O)[O-])C(=O)[O-].[Na+].[Na+]` (centres unmarked) [Di Na salt], the “Damage to plants after 21 days” value (Rumex obtusifolius; 0.05%) was 3 and the “Damage to plants after 21 days” value (Rumex obtusifolius; 0.1%) was 5.

With `CPCC[C@H](N)C(=O)O` (stereo partly drawn) [L-2-amino-4-methylphosphino butyric acid, reference compound] the “Survival ratio (%)” value (Killifishes (Medaka); 24 hours) was 0% and the “Survival ratio (%)” value (Killifishes (Medaka); 48 hours) was 0%.

With `CC(C)CC(NC(=O)C(C)NC(=O)C(N)CCP(C)(=O)O)C(=O)O.CC(C)N` (centres unmarked) [Mono isopropylamine salt] the “Damage to plants after 21 days” value (Rumex obtusifolius; 0.05%) was 3 and the “Damage to plants after 21 days” value (Rumex obtusifolius; 0.1%) was 5.

For `CC(C)CC(NC(=O)C(C)NC(=O)C(N)CCP(C)(=O)O)C(=O)O.CCCCN` (centres unmarked) [Mono n-butylamine salt], the “Damage to plants after 21 days” value (Rumex obtusifolius; 0.05%) was 3 and the “Damage to plants after 21 days” value (Rumex obtusifolius; 0.1%) was 5.

In the case of `CC(C)C[C@H](NC(=O)[C@H](C)NC(=O)[C@@H](N)CCP(C)(=O)O)C(=O)O` [Phosalacine, phosphinothricyl-alanyl leucine], the “inhibition of regrowth of the plants” value (various plants) is reported as “equal or superior to that of SF-1293”, the MIC [1] is reported as 0.4 µg/mL (≈ 1.09 µM) and the MIC (Proteus vulgaris KB127) is reported as 25 µg/mL (≈ 68.4 µM). The “acute toxity against fish, comparison” value (Killifishes (Medaka); fish) was “less than that of glyphosate and SF-1293”, the “herbicidal activity against Chamaecyparis obtusa” value (Chamaecyparis obtusa) was “not herbicidally active” and the “herbicidal activity against Cryptomeria japonica” value (Cryptomeria japonica) was “relatively low herbicidal activity”. For the same compound, the MIC (Aspergillus niger KF105) was greater than 100 µg/mL, the MIC (Erwinia aroideae KB148) was less than 0.05 µg/mL and the MIC (Bacillus subtilis KB211; Bacillus subtilis KB211, medium A Davis's minimal medium (pH 7.0)) was 0.4 µg/mL (≈ 1.09 µM). For the same compound, the “Effect of glutamine on activity against Bacillus subtilis” value (Bacillus subtilis KB211; synthetic media) was “competitively antagonised by glutamine”, the MIC (Escherichia coli KB213) was 12.5 µg/mL (≈ 34.2 µM) and the MIC (Piricularia oryzae KF180) was 0.1 µg/mL (≈ 0.274 µM). For the same compound, the Acid/base nature [2] was “Amphoteric”, the MIC (Mucor racemosus KF223) was 6.25 µg/mL (≈ 17.1 µM) and the MIC (Bacillus cereus KB143) was 0.4 µg/mL (≈ 1.09 µM). For the same compound, the MIC [3] was 25 µg/mL (≈ 68.4 µM), the MIC [4] was 0.2 µg/mL (≈ 0.547 µM) and the MIC (Candida albicans KFl) was greater than 100 µg/mL. For the same compound, the “Body weight” value ([5]; After 0 days) was 23.9 g, the “Body weight” value ([5]; After 7 days) was 24.5 g and the “Body weight” value ([5]; After 14 days) was 26.2 g. For the same compound, the “change of body weight” value ([5]; dose of 100 mg/kg) was “No significant change of body weight”, the “acute toxity to mice” value ([5]; per os) was “very low” and the MIC (Escherichia coli KB176) was 25 µg/mL (≈ 68.4 µM). It also gave an MIC (Micrococcus luteus KB212) of 6.25 µg/mL (≈ 17.1 µM).

With `CC(C)C[C@H](NC(=O)[C@H](C)NC(=O)[C@@H](N)CCP(C)(=O)O)C(=O)O.CCNCC` [monodiethylamine salt] the “damage to plants, scale 0 to 10” value (Digitaria adscendens; Concentration 0.01 ppm) was 5 (50), the “damage to plants, scale 0 to 10” value (Digitaria adscendens; Concentration 0.03 ppm) was 10 (100) and the “damage to plants, scale 0 to 10” value (Digitaria adscendens; Concentration 0.1 ppm) was 10 (100).
